In PubChem BioAssay (NCI) one finds TGI and GI50 data, which are given here for 15 compounds.

Some test systems named below: SW-620 colon; NCI-H226 lung; MCF7 breast; NCI-H460 lung; DU-145 prostate; HS 578T breast; SK-OV-3 ovarian; SF-268 CNS; T-47D breast; OVCAR-3 ovarian.
Common to all, as to assay: NCI anticancer screen, dose series, 48 h

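Tested at 5 concentrations; 48 h exposure; 96-well plates; endpoints linearly interpolated, else capped at highest concentration. Abbreviation: GI50, concentration required for 50% inhibition of growth. Definition used: TGI = concentration required for complete inhibition of growth.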 *1 amine or outer side, *2 acyl side, *3 side chain or, on linkers, in order; H or OH if unused. Where a SMILES comes first, the peptide text is derived from it. Bridges are numbered along the chain shown (N, C = ends). Roman numbers before positions name the chains, in order. [ ]: non-standard residue; d: D form. Actinocin(9to1) = Cc1c2oc3c(C)ccc(C(=O)[*:1])c3nc-2c(C(=O)[*:2])c(N)c1=O; NMeV = CN[CH](C(=O)O)C(C)C; Sar = CNCC(=O)O Some results are limits rather than exact numbers.

On to `CNC(=O)c1cc(NC(=O)N(CCC#N)CCN(C(=O)N[C@@H](Cc2ccccc2)C(=O)N[C@@H](CC(C)C)C(=O)NC)c2ccccc2)ccc1OC`, for which the TGI is over 100 µM with SW-620 colon; over 100 µM in the test on NCI-H226 lung; over 100 µM in the test on MCF7 breast; 50.9 µM in the test on NCI-H460 lung; over 100 µM in the test on DU-145 prostate; over 100 µM in the test on HS 578T breast. Besides, the TGI in the test with SK-OV-3 ovarian was over 100 µM; with SF-268 CNS, over 65.7 µM; in the test on T-47D breast, over 85.9 µM; in the test on OVCAR-3 ovarian it was over 100 µM.

For the compound `CC[C@H](C)[C@H]1NC(=O)[C@@H](NC(=O)[C@@H](CC(C)C)N(C)CC2CCCN2C(=O)C(C)=O)[C@@H](C)OC(=O)[C@H](Cc2ccc(OC)cc2)N(C)C(=O)C2CCCN2C(=O)[C@H](CC(C)C)NC(=O)[C@@H](C)C(=O)[C@H](C(C)C)OC(=O)C[C@@H]1O` (stereo not given in full), the TGI in the test with SW-620 colon is 1.8 µM; in the test with NCI-H226 lung it was 0.0809 µM; in the test with MCF7 breast, 0.00747 µM; in the test on NCI-H460 lung, 0.00812 µM; with DU-145 prostate it was 0.0032 µM; in the test on HS 578T breast, 0.0144 µM. Besides, the TGI was found to be 0.0194 µM in the test with SK-OV-3 ovarian, 0.0257 µM in the test on SF-268 CNS, 0.012 µM in the test on T-47D breast and 0.0151 µM in the test on OVCAR-3 ovarian.

With `O=C(OCc1ccccc1)C1(N2CN(C3(C(=O)OCc4ccccc4)CCCC3)CN(C3(C(=O)OCc4ccccc4)CCCC3)C2)CCCC1`, the TGI in the test with SW-620 colon, with NCI-H226 lung, with MCF7 breast, with NCI-H460 lung, with DU-145 prostate and in the test with HS 578T breast was over 10 µM each time. For the same compound, the TGI in the test on SK-OV-3 ovarian, with SF-268 CNS, with T-47D breast and in the test on OVCAR-3 ovarian was over 10 µM each time.

Consider `COc1ccc(-c2c(N)n(-c3cccc(C(=O)O)c3)c(=O)c3cc([N+](=O)[O-])ccc23)cc1`, for which the TGI with SW-620 colon, in the test on NCI-H226 lung, in the test with MCF7 breast, in the test with NCI-H460 lung, in the test on DU-145 prostate and with HS 578T breast was over 100 µM throughout. Besides, the TGI in the test with SK-OV-3 ovarian, with SF-268 CNS, in the test with T-47D breast and with OVCAR-3 ovarian was over 100 µM throughout.

`CN(C)Cc1cc(O)c(O)c(CN(C)C)c1`: the TGI is over 100 µM in the test on SW-620 colon; over 100 µM in the test on NCI-H226 lung; over 100 µM in the test on MCF7 breast; 52.5 µM in the test on NCI-H460 lung; over 100 µM with DU-145 prostate; over 100 µM in the test with HS 578T breast. Also, the TGI in the test on SK-OV-3 ovarian, with SF-268 CNS, in the test with T-47D breast and with OVCAR-3 ovarian was over 100 µM in each case.

For the compound `Cc1cc(-c2nc3ccccc3s2)ccc1NC(=O)[C@H](C)N`, the TGI with SW-620 colon was 29 µM; with NCI-H226 lung it was 13.4 µM; in the test on MCF7 breast, 20.4 µM; in the test with NCI-H460 lung, 25.6 µM; with DU-145 prostate it was 29 µM; in the test with HS 578T breast it was 74.4 µM. Besides, the TGI in the test with SK-OV-3 ovarian was determined as 28.5 µM; in the test with SF-268 CNS, 52.5 µM; in the test on T-47D breast, 21.4 µM; with OVCAR-3 ovarian it was 24.7 µM.

For the compound `CC(C)(C)C1(COC(=O)c2ccc(N)cc2)COC1`, the TGI with SW-620 colon, in the test on NCI-H226 lung, with MCF7 breast, in the test on NCI-H460 lung, with DU-145 prostate and in the test with HS 578T breast was over 100 µM each time. The TGI in the test with SK-OV-3 ovarian, in the test on SF-268 CNS, with T-47D breast and in the test with OVCAR-3 ovarian was over 100 µM in each case.

Regarding `Oc1ccc(SCc2cc(O)c(O)c(O)c2)cc1`, the TGI was over 100 µM in the test with SW-620 colon; 52.1 µM with NCI-H226 lung; 38.4 µM in the test on MCF7 breast; 36.7 µM with NCI-H460 lung; over 100 µM in the test with DU-145 prostate; over 100 µM in the test on HS 578T breast. For the same compound, the TGI in the test on SK-OV-3 ovarian, in the test with SF-268 CNS, in the test on T-47D breast and with OVCAR-3 ovarian was over 100 µM each time.

Regarding `C1CCC(OC2CSC2)OC1` (stereo not given), the TGI in the test with SW-620 colon, with NCI-H226 lung, with MCF7 breast, in the test on NCI-H460 lung, with DU-145 prostate and in the test with HS 578T breast was over 100 µM each time. Further, the TGI in the test with SK-OV-3 ovarian, in the test on SF-268 CNS, with T-47D breast and in the test with OVCAR-3 ovarian was over 100 µM each time.

On to `O=C1COc2ccc([N+](=O)[O-])cc2C(=O)C1`, for which the TGI in the test with SW-620 colon, with NCI-H226 lung, with MCF7 breast, with NCI-H460 lung, in the test with DU-145 prostate and with HS 578T breast was over 10 µM in each case. The TGI in the test with SK-OV-3 ovarian, with SF-268 CNS, in the test on T-47D breast and with OVCAR-3 ovarian was over 10 µM throughout.

`C#CC(F)(F)[C@]1(O)CC[C@H]2[C@@H]3CCC4=CC(=O)CCC4=C3[C@@H](c3ccc(C(C)=O)cc3)C[C@@]21C`: the GI50 in the test with SW-620 colon was 24.2 µM; with NCI-H226 lung, 21.7 µM; in the test with MCF7 breast, 2640 nM; in the test with NCI-H460 lung, 21.5 µM; with DU-145 prostate, 20.1 µM; in the test with HS 578T breast, 17 µM. For the same compound, the GI50 is 20.7 µM in the test with SK-OV-3 ovarian, 423 nM in the test on SF-268 CNS, under 13.5 nM in the test on T-47D breast and 289 nM in the test on OVCAR-3 ovarian. In addition, the TGI in the test with SW-620 colon was over 100 µM; with NCI-H226 lung it was 71.3 µM; with MCF7 breast it was 63 µM; in the test on NCI-H460 lung it was over 68.2 µM; in the test on DU-145 prostate, 95.1 µM; with HS 578T breast it was over 95.2 µM. For the same compound, the TGI in the test with SK-OV-3 ovarian is over 100 µM; in the test on SF-268 CNS, over 100 µM; in the test with T-47D breast, 36.1 µM; in the test with OVCAR-3 ovarian it was 42.8 µM.

For the compound `COC(OC)C1OC(CO)C(n2ccc(N)nc2=O)C1O` (stereo not given), the TGI with SW-620 colon, in the test with NCI-H226 lung, in the test on MCF7 breast, in the test on NCI-H460 lung, with DU-145 prostate and in the test on HS 578T breast was over 100 µM throughout. In addition, the TGI in the test with SK-OV-3 ovarian, with SF-268 CNS, in the test on T-47D breast and in the test on OVCAR-3 ovarian was over 100 µM in each case.

As to `CSc1c(C#N)c(=O)[nH]c2n[nH]c(C)c12`, the TGI with SW-620 colon, in the test with NCI-H226 lung, in the test on MCF7 breast, with NCI-H460 lung, with DU-145 prostate and in the test with HS 578T breast was over 100 µM each time. For the same compound, the TGI in the test with SK-OV-3 ovarian, in the test on SF-268 CNS, with T-47D breast and in the test on OVCAR-3 ovarian was over 100 µM throughout.

As to `CN(NC(=O)CCCl)C1=NCCCCN1`, the TGI in the test with SW-620 colon, with NCI-H226 lung, in the test with MCF7 breast, in the test on NCI-H460 lung, with DU-145 prostate and in the test on HS 578T breast was over 100 µM each time. The TGI with SK-OV-3 ovarian, with SF-268 CNS, with T-47D breast and in the test with OVCAR-3 ovarian was over 100 µM throughout.

Consider `Cc1c2oc3c(C)ccc(C(=O)NC4C(=O)NC(C(C)O)C(=O)N5CCCC5C(=O)N(C)CC(=O)N(C)C(C(C)C)C(=O)OC4C)c3nc-2c(C(=O)NC2C(=O)NC(C(C)O)C(=O)N3CCCC3C(=O)N(C)CC(=O)N(C)C(C(C)C)C(=O)OC2C)c(N)c1=O` (stereo not given) (I: TTP[Sar][NMeV] / II: TTP[Sar][NMeV]; ester I:1-I:C, II:1-II:C; linker I:N-II:N via Actinocin(9to1); configuration not given here), for which the TGI in the test on SW-620 colon was over 100 µM; in the test on NCI-H226 lung it was 0.803 µM; with MCF7 breast it was 1.06 µM; in the test on NCI-H460 lung, over 100 µM; in the test on DU-145 prostate it was over 100 µM; with HS 578T breast, 72 µM. Further, the TGI in the test with SK-OV-3 ovarian was over 100 µM; in the test on SF-268 CNS, over 100 µM; with T-47D breast it was over 100 µM; in the test on OVCAR-3 ovarian it was 4.71 µM.
